Assay [1] addresses T1, human serotonin 5-HT2c receptor (Homo sapiens, UniProt P28335).
T1 construct: expressed in transfected cells; host or cells: CHO cells (membrane homogenates)
T1 sequence (P28335 33-458): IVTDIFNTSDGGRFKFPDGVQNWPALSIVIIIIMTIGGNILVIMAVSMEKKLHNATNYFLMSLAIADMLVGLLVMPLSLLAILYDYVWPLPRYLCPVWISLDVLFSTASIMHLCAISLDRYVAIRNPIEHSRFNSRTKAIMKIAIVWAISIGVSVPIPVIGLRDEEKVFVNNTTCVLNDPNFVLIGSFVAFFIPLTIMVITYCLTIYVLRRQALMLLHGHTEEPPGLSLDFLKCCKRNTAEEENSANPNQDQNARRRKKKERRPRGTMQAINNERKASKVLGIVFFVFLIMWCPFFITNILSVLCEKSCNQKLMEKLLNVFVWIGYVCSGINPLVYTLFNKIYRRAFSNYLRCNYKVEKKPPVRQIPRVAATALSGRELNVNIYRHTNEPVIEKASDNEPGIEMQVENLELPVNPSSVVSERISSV
Briefly: Human 5-HT2C receptor radioligand binding assay (agonist site, [125I]DOI). Conditions: 5-HT2c agonist site; transfected CHO cell membranes; 0.2 nM [125I](±)DOI; call rule not given here. On the procedure:
(i) Human 5-HT2C Receptor Radioligand Binding Assay
Affinity of compounds for the agonist site of the […], receptor in transfected CHO cells was determined in a radioligand binding assay essentially as described by Bryant, H. U., et al., Life Sciences (1996) 59(15), 1259-1268.

Assay [2] has as its target T2, 5HT2C receptors (Homo sapiens, UniProt P28335).
T2 sequence (P28335 33-458): T1 sequence (P28335 33-458)
Briefly: Human 5-HT2C functional assay in 1321N1 cells (intracellular calcium, FLIPR). The assay is classed as cell-based. Further details: expressed in transfected cells; host or cells: 1321N1 cells. Particulars: 5-HT2c agonist activity, maximum calcium response. As for the experimental part: (ii) Human 5-HT2C Functional Assay in 1321N1 Cells
Functional activity was determined by testing the effect of the compounds on intracellular calcium levels in 1321N1 cells stably transfected with the human 5-HT2C receptor. Cells were seeded into 96-well plates at 50,000 cells/well and grown overnight in tissue culture medium (DMEM with Glutamax I (Invitrogen), containing 10% dFCS, 50 μg/mL Gentamicin, 400 μg/mL Geneticin) at 37° C. and 7% CO2. Growth medium was replaced by medium without dFCS for overnight incubation. Cells were loaded with a fluorescent calcium-sensitive dye in the presence of 1% probenicid according to the manufacturer's protocol (Fluo4 AM, Molecular Devices). Serial compound dilutions (final concentrations 10^−10 to 10^−5 M) were added to the cells either alone or in the presence of serotonin (10^−9 M) and the maximum calcium response was determined using a FLIPR instrument (Molecular Devices). Concentration-response curves were fitted using a four-parameter logistic equation (GraphPad Prism). The concentration at which the compound exerts half its maximal effect is named the ‘effective concentration 50’ or ‘EC50’ and is listed in Table 2.
Background: Calcium flux is commonly read through the fluorescence of an indicator in the cells.

A further assay concerns the target T3, 5HT2B receptors (Homo sapiens, UniProt P41595).
T3 construct: expressed in transfected cells; host or cells: CHO-K1 cells
Nature of the assay: Human 5-HT2B functional high throughput screening assay in CHO-K1 cells (calcium flux). It counts as cell-based. Particulars: for EC50: CHO-K1 cells, calcium flux. The gist of the method:
(§1)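 CHO-K1 cells overexpressing human 5-HT2C or 5-HT2B were serum-starved overnight and loaded with Ca4 dye plus 2.5 mM probenecid for 60 min at RT. Calcium flux was read on FLIPR (ex 480/em 530 nm, 25° C) over 3 min after addition of compound, tested from 10 μM in 1:10 steps over 6 points with 0.2% DMSO. EC50 and Emax relative to serotonin came from a 4-parameter logistic fit.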

For assay [3], the target named is T2, 5HT2C receptors. Briefly: Human 5-HT2C functional high throughput screening assay in CHO-K1 cells (calcium flux). It counts as cell-based. Also on record: expressed in transfected cells; host or cells: CHO-K1 cells. Conditions: for Emax: CHO-K1, 5-HT2C, maximum functional response as percentage relative to the effect of serotonin; for EC50: CHO-K1 cells, calcium flux. The gist of the method: as §1

[4] abbreviates: 5-HT2B agonist activity, read-out: EC50.
[5] abbreviates: 5-HT2B, maximum functional response as percentage relative to the effect of serotonin.
Where [6] appears, read: 5-HT2C agonist activity, read-out: EC50.

Like-named read-outs stand apart in the source and are kept apart here.

T3 sequence (P41595 whole entry): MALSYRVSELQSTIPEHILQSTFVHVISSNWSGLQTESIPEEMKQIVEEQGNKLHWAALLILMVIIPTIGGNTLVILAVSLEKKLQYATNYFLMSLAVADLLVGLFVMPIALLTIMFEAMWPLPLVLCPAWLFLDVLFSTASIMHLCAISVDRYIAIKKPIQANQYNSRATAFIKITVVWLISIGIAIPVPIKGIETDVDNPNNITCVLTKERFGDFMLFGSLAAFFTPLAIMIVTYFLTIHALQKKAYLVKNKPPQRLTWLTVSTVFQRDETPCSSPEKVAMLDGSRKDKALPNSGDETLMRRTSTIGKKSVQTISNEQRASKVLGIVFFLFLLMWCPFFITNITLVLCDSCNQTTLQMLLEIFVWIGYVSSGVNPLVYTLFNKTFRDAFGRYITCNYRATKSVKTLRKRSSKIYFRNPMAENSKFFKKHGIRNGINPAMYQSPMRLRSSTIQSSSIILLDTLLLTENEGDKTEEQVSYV

On to `COc1cc(CN2C[C@H]3CNC(=O)c4ccccc4[C@@H]3C2)cc(OC)c1` (relative stereo) [Example 38, Trans-2-(3,5-dimethoxybenzyl)-1,2,3,3a,4,5-hexahydrobenzo[c]pyrrolo[3,4-e]azepin-6(10bH)-one], for which, in assay [1], affinity was put at a Ki of 8.6 nM. Also, the EC50 (as a rule, the concentration giving half of the maximal effect) on 5HT2C receptors [2] amounted to 6.24 nM.

On to `O=C1NC[C@@H]2CNC[C@H]2c2cc(Cl)ccc21` (relative stereo) [Example 52, Trans-9-chloro-1,2,3,3a,4,5-hexahydrobenzo[e]pyrrolo[3,4-c]azepin-6(10bH)-one], for which the Ki (usually the equilibrium dissociation constant of an inhibitor or competing ligand from its target) in assay [1] stood at 860 nM. Also, the concentration for a half-maximal effect (EC50) at 5HT2C receptors [2] was determined as 158 nM.

Molecule `O=C1NC[C@@H]2CNC[C@H]2c2cccc(F)c21` (single isomer, unassigned) [Example 60, Trans-7-fluoro-1,2,3,3a,4,5-hexahydrobenzo[c]pyrrolo[3,4-e]azepin-6(10bH)-one] had an inhibitory constant (Ki) in assay [1] of 44 nM. The results for the Emax on 5HT2B receptors (CHO-K1) and at 5HT2C receptors [3] were 80% and 120%, respectively. For the same molecule, the 50% effective concentration (EC50) at 5HT2B receptors (EC50, 5-HT2B agonist activity) worked out at 900 nM; at 5HT2C receptors [2] it was 7.65 nM; at 5HT2C receptors [3] (EC50, 5-HT2C agonist activity), 7 nM.

With `O=C1NC[C@H]2CN(Cc3ccccc3)C[C@@H]2c2ccc(F)cc21` [Example 61, (3aS,10bS)-2-Benzyl-8-fluoro-1,2,3,3a,4,5-hexahydrobenzo[e]pyrrolo[3,4-e]azepin-6(10bH)-one], the inhibition constant (Ki) in assay [1] was 6.4 nM. Further, the Emax (as a rule, the size of the effect at its maximum, as opposed to the concentration needed) is 10% on 5HT2B receptors (CHO-K1) and above 120% on 5HT2C receptors [3]. Moreover, the EC50 was 200 nM on 5HT2B receptors (EC50, 5-HT2B agonist activity); 3.2 nM on 5HT2C receptors [2]; 5.82 nM at 5HT2C receptors [3] (EC50, 5-HT2C agonist activity).

`O=C1NC[C@@H]2CN(Cc3ccccc3)C[C@@H]2c2cccc(F)c21` (relative stereo) [Example 59, Cis-2-benzyl-7-fluoro-1,2,3,3a,4,5-hexahydrobenzo[c]pyrrolo[3,4-e]azepin-6(10bH)-one] gave a Ki in assay [1] of 210 nM. Also, the EC50 was above 10000 nM at 5HT2B receptors (setting [4]), 115 nM on 5HT2C receptors [2] and 100 nM on 5HT2C receptors [3] (setting [6]). Moreover, the maximal response (Emax) result at 5HT2B receptors (setting [5]) is “inactive”; at 5HT2C receptors [3] (read-out: Emax), 120%.

Molecule `O=C1NC[C@@H]2CNC[C@H]2c2c(Cl)cccc21` (relative stereo) [Example 49] displayed a Ki in assay [1] of 170 nM. Besides, at 5HT2C receptors [2], the concentration giving a half-maximal response (EC50) was determined as 48.3 nM.

The molecule `O=C1NC[C@@H]2CN(Cc3cc(Cl)ccc3F)C[C@H]2c2ccccc21` (relative stereo) [Example 70, Trans-2-(5-chloro-2-fluorobenzyl)-1,2,3,3a,4,5-hexahydrobenzo[e]pyrrolo[3,4-c]azepin-6(10bH)-one] showed a Ki in assay [1] of 36 nM. In addition, the half-maximal effective concentration (EC50) on 5HT2C receptors [2] is 1.76 nM.

In assay [1], `O=C1NC[C@@H]2CN(Cc3ccccc3)C[C@H]2c2cccc(F)c21` (relative stereo) [Example 58, Trans-2-benzyl-7-fluoro-1,2,3,3a,4,5-hexahydrobenzo[e]pyrrolo[3,4-c]azepin-6(10bH)-one] had an inhibitory constant (Ki) of 31 nM. The EC50 was above 10000 nM at 5HT2B receptors (setting [4]), 29 nM on 5HT2C receptors [2] and 30 nM on 5HT2C receptors [3] (setting [6]). The values for the Emax result at 5HT2B receptors (setting [5]) and on 5HT2C receptors [3] (read-out: Emax) were “inactive” and 110%, respectively.

Molecule `O=C1NC[C@@H]2CN(Cc3ccccc3)C[C@H]2c2c(Cl)cccc21` (relative stereo) [Example 48, Trans-2-benzyl-10-chloro-1,2,3,3a,4,5-hexahydrobenzo[e]pyrrolo[3,4-c]azepin-6(10bH)-one] had an inhibitory constant (Ki) in assay [1] of 22 nM. At 5HT2C receptors [2], the half-maximal effective concentration (EC50) turned out to be 14.1 nM.

In assay [1], `O=C1NC[C@@H]2CNC[C@H]2c2ccccc21` (relative stereo) [Example 2, Trans-1,2,3,3a,4,5-hexahydrobenzo[c]pyrrolo[3,4-e]azepin-6(10bH)-one] returned an inhibition constant Ki of 22 nM.

As for `O=C1NC[C@@H]2CN(Cc3cc(Cl)cc(Cl)c3)C[C@H]2c2ccccc21` (relative stereo) [Example 30, Trans-2-(3,5-dichlorobenzyl)-1,2,3,3a,4,5-hexahydrobenzo[c]pyrrolo[3,4-e]azepin-6(10bH)-one], the Ki in assay [1] is 3.4 nM. At 5HT2C receptors [2], the concentration for a half-maximal effect (EC50) came to 2.11 nM.

In turn, `O=C1NC[C@@H]2CNC[C@H]2c2ccc(Cl)cc21` (relative stereo) [Example 46, Trans-8-chloro-1,2,3,3a,4,5-hexahydrobenzo[e]pyrrolo[3,4-c]azepin-6(10bH)-one] showed a Ki in assay [1] of 11 nM. Moreover, the EC50 at 5HT2C receptors [2] was determined as 1.14 nM.

As to `Cc1cccc(CN2C[C@H]3CNC(=O)c4ccccc4[C@@H]3C2)c1C` (relative stereo) [Example 27, Trans-2-(2,3-dimethylbenzyl)-1,2,3,3a,4,5-hexahydrobenzo[c]pyrrolo[3,4-e]azepin-6(10bH)-one], the affinity in assay [1], expressed as Ki, was 210 nM. Further, the EC50 on 5HT2C receptors [2] was found to be 266 nM.

`O=C1NC[C@@H]2CN(Cc3ccccc3)C[C@H]2c2ccc(Cl)cc21` (relative stereo) [Example 45, Trans-2-benzyl-8-chloro-1,2,3,3a,4,5-hexahydrobenzo[c]pyrrolo[3,4-e]azepin-6(10bH)-one] yielded a Ki in assay [1] of 6.9 nM. Moreover, the EC50 at 5HT2C receptors [2] amounted to 5.95 nM.

On to `O=C1NC[C@@H]2CN(Cc3ccccc3)C[C@H]2c2ccccc21` (racemic) [Example 1, Trans-2-benzyl-1,2,3,3a,4,5-hexahydrobenzo[c]pyrrolo[3,4-e]azepin-6(10bH)-one], for which the results for the half-maximal effective concentration (EC50) on 5HT2B receptors (setting [4]), at 5HT2C receptors [2] and at 5HT2C receptors [3] (setting [6]) were above 10000 nM, 11.2 nM and 20 nM, respectively. Moreover, the maximal effect (Emax) result on 5HT2B receptors (setting [5]) is “inactive”; on 5HT2C receptors [3] (read-out: Emax), above 120%.

For the molecule `O=C1NC[C@@H]2CN(Cc3ccccc3)C[C@@H]2c2c(F)cccc21` (relative stereo) [Example 66, Cis-2-benzyl-10-fluoro-1,2,3,3a,4,5-hexahydrobenzo[c]pyrrolo[3,4-e]azepin-6(10bH)-one], the affinity in assay [1], expressed as Ki, was 290 nM. Also, at 5HT2C receptors [2], the concentration for a half-maximal effect (EC50) is 179 nM.

In the case of `O=C1NC[C@@H]2CN(Cc3ccccc3)C[C@H]2c2cc(Cl)ccc21` (relative stereo) [Example 51, Trans-2-benzyl-9-chloro-1,2,3,3a,4,5-hexahydrobenzo[e]pyrrolo[3,4-c]azepin-6(10bH)-one], the Ki in assay [1] is 110 nM. For the same molecule, the EC50 on 5HT2C receptors [2] was 84 nM.

`COc1ccccc1CN1C[C@H]2CNC(=O)c3ccccc3[C@@H]2C1` (relative stereo) [Example 29, Trans-2-(2-methoxybenzyl)-1,2,3,3a,4,5-hexahydrobenzo[c]pyrrolo[3,4-e]azepin-6(10bH)-one] returned a Ki in assay [1] of 70 nM. In addition, the EC50 at 5HT2C receptors [2] is 27 nM.

As for `O=C1NC[C@@H]2CN(Cc3ccccc3)C[C@H]2c2cc(Cl)c(Cl)cc21` (relative stereo) [Example 56, Trans-2-benzyl-8,9-dichloro-1,2,3,3a,4,5-hexahydrobenzo[c]pyrrolo[3,4-e]azepin-6(10bH)-one], affinity in assay [1] was put at a Ki of 70 nM. Further, the half-maximal effective concentration (EC50) on 5HT2C receptors [2] turned out to be 15.3 nM.

For `O=C1NC[C@@H]2CN(Cc3cccc(F)c3)C[C@H]2c2ccccc21` (relative stereo) [Example 34, Trans-2-(3-fluorobenzyl)-1,2,3,3a,4,5-hexahydrobenzo[c]pyrrolo[3,4-e]azepin-6(10bH)-one], the concentration giving a half-maximal response (EC50) at 5HT2C receptors [2] stood at 12 nM.

With `N#Cc1cccc(CN2C[C@H]3CNC(=O)c4ccccc4[C@@H]3C2)c1` (relative stereo) [Example 36, 3-((Trans-6-oxo-1,3a,4,5,6,10b-hexahydrobenzo[c]pyrrolo[3,4-e]azepin-2(3H)-yl)methyl)benzonitrile], on 5HT2C receptors [2], the half-maximal effective concentration (EC50) stood at 77.2 nM.

The record behind these values is patent US8846951B2 (AbbVie Inc., priority 2009, dated 2014).
